# Results from patent US10688075B2 (Morgandane Scientific, LLC, priority 2018, dated 2020).
# Values joined by “and” are separate entries in the source; they are usually repeats but may differ in a detail not shown here. Equal values may be shown once. Read-outs that look alike come from different tables or passages of the source.
# Tests used:
# [1] = Risk of major bleeding from steady state rivaroxaban AUC (FIG. 5); type: in vivo, human
# Experimental: See Center for Drug Evaluation and Research, Application No. 022406Orig1s000, Clinical Pharmacology and Biopharmaceutics Review(s), at page 36, which is hereby incorporated by reference in its entirety.
# Group “c” represents the average of the three subjects in Group “b” who had the highest AUCinf, which was about 8,143 μg·hr/L. The risk of major bleeding of the subjects in Group “c” were at least 5 times higher compared to the populations in Group “a” and not even visible on this scale.
# [2] = cited from earlier work
# [3] = Reported rivaroxaban serious bleeding adverse events by concomitant drug; type: in vivo, human
# From the text: 8, 2015, American Heart Association, Scientific Sessions 2015, and published at http://www.abstractsonline.com/pp8/#!/3795/presentation/37668).
# [4] = Drug-drug interaction study of oral verapamil, aspirin and rivaroxaban (Example 5); type: in vivo, human; details: for Risk of major bleeding: e.g.
# Experimental: Additional studies are performed to determine the presence of DDIs in patients treated with oral verapamil, aspirin, and rivaroxaban. […] A representative example of such a study is found in Example 1. […] Additionally, these studies show a linear relationship between the pharmacokinetic and the pharmacodynamics of rivaroxaban in subjects with normal renal function and renal insufficiency.
# [5] = in vivo; cited from earlier work
# [6] = Plasma rivaroxaban pharmacokinetics: single 20 mg rivaroxaban alone (Period I) or with 360 mg verapamil at steady state (Period III), subjects with mild renal impairment or normal renal function
# Experimental: These patients are subjected to various one-time and longitudinal pharmacokinetic (PK) and pharmacodynamic (PD) analyses. […] Cmax and AUC values for each dose are calculated. Patients also undergo a general physical exam to determine overall health and well-being.
# All the pharmacokinetic and pharmacodynamics analyses are repeated on patients receiving this treatment.
# Subjects with either mild renal impairment or with normal renal function were enrolled.
# Renal function of the subjects was determined by measuring creatinine clearance (CLcr) rates. Subjects who had CLcr≥90 mL/min were categorized as having normal renal function whereas subjects who had CLcr 50-79 mL/min were categorized as mildly renally impaired. Blood samples were collected and processed according to the standard protocols.
# [7] = cited from earlier work; remark: listed apart in the source
# Factor Xa = target: T1, Factor Xa (Homo sapiens, UniProt P00742); test: Factor Xa activity after rivaroxaban with or without verapamil; type: in vivo
# T1 construct: host or cells: human subjects
# T1 sequence (P00742 235-488 limits assumed): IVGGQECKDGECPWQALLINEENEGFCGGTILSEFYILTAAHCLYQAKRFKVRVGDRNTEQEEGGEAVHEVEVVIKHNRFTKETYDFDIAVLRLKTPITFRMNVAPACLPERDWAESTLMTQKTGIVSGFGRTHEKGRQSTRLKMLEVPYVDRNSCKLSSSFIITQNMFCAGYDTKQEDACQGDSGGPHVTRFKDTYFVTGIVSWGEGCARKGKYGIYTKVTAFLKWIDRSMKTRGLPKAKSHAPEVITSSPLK
# T1 sequence (P00742 41-179 partner limits assumed): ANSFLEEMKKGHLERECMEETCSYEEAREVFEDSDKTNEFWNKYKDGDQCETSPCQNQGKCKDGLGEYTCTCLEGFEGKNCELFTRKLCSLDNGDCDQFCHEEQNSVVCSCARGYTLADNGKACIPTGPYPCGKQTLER
# From the text: (§1) Additional pharmacodynamic metrics are also gathered for each patient, including, but not limited to: prothrombin time (using the STA® Neoplastin® method) and Factor Xa activity. Protocols for each of these analyses have been described in Nielsen et al 2015. Renal Function and non-vitamin K oral anticoagulants in comparison with warfarin on safety and efficacy outcomes in atrial fibrillation patients: a systemic review and meta-regression analysis.
# Prothrombin Time = test: Prothrombin time (STA Neoplastin method) after rivaroxaban with or without verapamil; type: in vivo, human
# From the text: As used herein, the term “prothrombin time” (PT) refers to a blood test that measures how long it takes blood to clot. In some embodiments, a prothrombin time test can be used to measure of a patient's haemostasis. In some embodiments, PT can be used to measure the effectiveness or exposure to a blood clotting drug. Persons having skill in the art sometimes interchangeably refer to a PT test as an INR. […] Additionally, PT measurements are subject to variability based on the test reagent and laboratory test ranges determined by each institution.
# as §1, with “Protocols for each of these analyses have been described in Nielsen et al 2015.” left out
# Blood samples were collected and processed according to the standard protocols.
# [8] = Drug-drug interaction study of oral verapamil and 0.5-2.5 mg rivaroxaban (Example 4); type: in vivo, human; details: 0.5-2.5 mg rivaroxaban with verapamil (100-480 mg)
# Experimental: A control study is performed to determine the presence of DDIs in patients treated with oral verapamil and rivaroxaban (without aspirin). […]. A representative example of a sample study is found in Example 1.
# [9] = cited from earlier work; remark: listed apart in the source
# P-gp = P-gp (Homo sapiens, UniProt P08183); details: in vitro; cited from earlier work
# Sequence of P-gp (P08183 whole entry): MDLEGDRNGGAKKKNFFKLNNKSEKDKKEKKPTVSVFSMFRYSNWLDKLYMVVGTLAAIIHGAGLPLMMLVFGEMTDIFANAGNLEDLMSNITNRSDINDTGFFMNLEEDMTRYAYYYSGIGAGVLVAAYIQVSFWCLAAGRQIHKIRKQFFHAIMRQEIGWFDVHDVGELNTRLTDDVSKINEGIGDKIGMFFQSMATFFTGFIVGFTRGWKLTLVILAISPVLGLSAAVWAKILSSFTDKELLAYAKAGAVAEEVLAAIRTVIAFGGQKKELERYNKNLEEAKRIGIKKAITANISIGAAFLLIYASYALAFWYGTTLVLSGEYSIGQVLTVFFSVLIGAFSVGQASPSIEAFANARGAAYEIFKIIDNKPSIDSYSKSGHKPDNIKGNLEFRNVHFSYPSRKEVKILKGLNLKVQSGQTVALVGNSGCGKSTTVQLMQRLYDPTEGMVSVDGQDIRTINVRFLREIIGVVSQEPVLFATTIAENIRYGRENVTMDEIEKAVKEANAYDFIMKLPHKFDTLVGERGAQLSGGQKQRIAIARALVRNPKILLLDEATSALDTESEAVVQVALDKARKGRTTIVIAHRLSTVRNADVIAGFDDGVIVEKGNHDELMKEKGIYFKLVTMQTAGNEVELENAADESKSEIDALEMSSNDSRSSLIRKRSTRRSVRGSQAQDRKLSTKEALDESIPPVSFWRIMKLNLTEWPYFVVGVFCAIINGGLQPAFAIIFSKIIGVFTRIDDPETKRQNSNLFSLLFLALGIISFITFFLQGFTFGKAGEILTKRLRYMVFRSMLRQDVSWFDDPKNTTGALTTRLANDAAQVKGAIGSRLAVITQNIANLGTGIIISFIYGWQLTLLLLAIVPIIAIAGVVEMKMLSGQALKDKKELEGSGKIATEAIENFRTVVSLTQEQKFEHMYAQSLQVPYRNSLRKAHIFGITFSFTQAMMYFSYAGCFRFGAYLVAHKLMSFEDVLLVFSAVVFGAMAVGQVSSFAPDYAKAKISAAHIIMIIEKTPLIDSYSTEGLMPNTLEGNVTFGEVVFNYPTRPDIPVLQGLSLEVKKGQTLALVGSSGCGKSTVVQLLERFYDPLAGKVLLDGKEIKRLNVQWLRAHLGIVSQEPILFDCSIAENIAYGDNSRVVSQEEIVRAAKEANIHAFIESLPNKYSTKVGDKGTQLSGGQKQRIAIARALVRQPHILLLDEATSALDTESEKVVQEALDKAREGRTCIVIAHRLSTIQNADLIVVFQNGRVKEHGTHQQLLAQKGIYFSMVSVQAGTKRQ
# [10] = Example 1: 20 mg rivaroxaban + 360 mg verapamil vs rivaroxaban alone
# [11] = Example 4: 0.5-2.5 mg rivaroxaban with verapamil (100-480 mg)
smiles,measurement,setting,value
O=C(NC[C@H]1CN(c2ccc(N3CCOCC3=O)cc2)C(=O)O1)c1ccc(Cl)s1 [Rivaroxaban],"Risk of major bleeding, Group a","[1]; fed subjects, single 20 mg rivaroxaban, AUC about 2,026 μg·hr/L, FIG. 5",about 3%
same,"Risk of major bleeding compared to Group a, Group b","[1]; mild renal impairment, single 20 mg rivaroxaban and 360 mg verapamil",2.5 times higher
same,"Risk of major bleeding compared to Group a, Group c",[1]; three subjects of Group b with the highest AUCinf,at least 5 times higher
same,Geometric mean AUC of rivaroxaban for 2.5 mg dose,"[2]; 2.5 mg rivaroxaban, no verapamil",165.4 μg·h/L to 551.9
same,Geometric mean AUC of rivaroxaban for 5 mg dose,"[2]; 5 mg rivaroxaban, no verapamil",1064.25 µg·h/L
same,"Average AUC (average geometric mean), Group a","[2]; fed subjects across studies 10989 and 11938, single 20 mg rivaroxaban, FIG. 5","approximately 2,026 μg·hr/L"
same,Upper bound of the 90% confidence interval of the steady state AUC (Label A),"[2]; patients administered 20 mg of rivaroxaban, FIG. 4","about 3,792 μg·hr/L"
same,Upper boundary of the 90% confidence interval of the steady state AUC (Label C),"[2]; single 20 mg dose of rivaroxaban after a meal (study 10989), FIG. 4","about 2,448 μg·hr/L"
same,Association with increased serious bleeding adverse events,[3]; concomitant administration of rivaroxaban and erythromycin,not associated with increased serious bleeding adverse events
same,Share of the reported rivaroxaban serious bleeding adverse events,"[3]; patients concomitantly administered verapamil and rivaroxaban, who account for only 22% of the total population receiving rivaroxaban",30%
same,Risk of major bleeding compared to subjects not concomitantly administered verapamil,"[4]; concomitant oral verapamil, aspirin and rivaroxaban",significantly higher risk of major bleeding
same,Risk of major bleeding,"[4]; single 1.75 mg rivaroxaban and verapamil (e.g., 360 mg), Example 5, from about 1.5-2.0%",not more than 4.5%
same,Risk of major bleeding,"[4]; single 2.5 mg rivaroxaban, verapamil (e.g., 360 mg) and aspirin (100 mg), about 3%",not more than 4.5%
same,Dose eliminated in urine as unprocessed active drug,[5],~36%
same,Dose eliminated through active renal secretion,[5],30%
same,Dose eliminated through glomerular filtration,[5],6%
same,Dose subject to metabolic degradation via the liver's oxidative and hydrolytic pathways,[5],two-thirds
same,Share of rivaroxaban clearance accounted for by CYP3A4,[5],approximately 18%
same,CL/F/kg,"[6]; Period I, rivaroxaban alone, Group 2 normal renal function (N = 13), outlier sample excluded, arithmetic mean",0.108 (L/hr)/kg
same,CL/F/kg,"[6]; Period III, rivaroxaban and verapamil, Group 2 normal renal function (N = 10), individual subjects",0.0664 (L/hr)/kg and 0.0705 (L/hr)/kg and 0.0839 (L/hr)/kg
same,CL/F/kg,"[6]; Period III, rivaroxaban and verapamil, Group 2 normal renal function (N = 10), median",0.0664 (L/hr)/kg
same,t1/2,"[6]; human, in vivo, 20 mg",9.44 h
same,Risk of major bleeding events compared to aspirin alone,[7]; 2.5 mg rivaroxaban (BID) and aspirin,increase the risk of major bleeding events
same,Risk of major bleeding events compared to aspirin alone,[7]; 5 mg dose of rivaroxaban alone,increase the risk of major bleeding events
same,"Clinical outcomes (stroke, myocardial infarction, cardiovascular death) compared to aspirin alone and rivaroxaban 5 mg BID alone","[7]; rivaroxaban 2.5 mg BID and aspirin, patients with cardiovascular disease",reduce several clinical outcomes
same,Factor Xa inhibition on concomitant verapamil,Factor Xa; [10],increased Factor Xa inhibition
same,Factor Xa inhibition on concomitant verapamil,Factor Xa; [11],increased Factor Xa inhibition
same,PT on concomitant verapamil,Prothrombin Time; [10],prolonged PT
same,PT on concomitant verapamil,Prothrombin Time; [11],prolonged PT
same,Relationship between plasma concentrations of rivaroxaban and PT (pharmacokinetics vs pharmacodynamics),"Prothrombin Time; subjects with normal renal function and mild renal insufficiency, Day 1 and Day 15, FIGS. 1 and 2",clear linear relationship
same,Rivaroxaban plasma concentrations on concomitant verapamil,[8],higher rivaroxaban plasma concentrations
COc1ccc(NC(=O)c2ccc(C(=N)N(C)C)cc2)c(C(=O)Nc2ccc(Cl)cn2)c1 [betrixaban],"Exposure on concomitant use of P-gp inhibitors, such as verapamil",[9]; BEVYXXA label,increased exposure to betrixaban
CN1CCc2nc(C(=O)N[C@@H]3C[C@@H](C(=O)N(C)C)CC[C@@H]3NC(=O)C(=O)Nc3ccc(Cl)cn3)sc2C1 [edoxaban],Bleeding or other adverse events on co-administration with verapamil,[9]; Mendell et al.,did not lead to any increased bleeding or other adverse events
CC[C@H]1OC(=O)[C@H](C)[C@@H](O[C@H]2C[C@@](C)(OC)[C@@H](O)[C@H](C)O2)[C@H](C)[C@@H](O[C@@H]2O[C@H](C)C[C@H](N(C)C)[C@H]2O)[C@](C)(O)C[C@@H](C)C(=O)[C@H](C)[C@@H](O)[C@]1(C)O [erythromycin],Eliminated renally (unchanged),[5],2-15%
same,Inhibition of P-gp-mediated efflux of rivaroxaban across cell monolayers,P-gp,did not inhibit
